These results are taken from ChEMBL document CHEMBL3244025, “Carbocyclic arabinosyladenine, an adenosine deaminase resistant antiviral agent” (J Med Chem, 1977).

Each structure is given as a SMILES string.

The experiment has as its system Vaccinia virus. The experiment in a line: Antiviral activity against Vaccinia virus Lederle Chorioallantoic infected in human Hep2 cells assessed as inhibition of virus-induced cytopathogenic effect. Type of experiment: functional, Orthopoxvirus vaccinia, HEp-2.

Consider `Nc1ncnc2c1ncn2[C@@H]1C[C@H](CO)[C@@H](O)[C@@H]1O` (racemic), for which the MED50 is 9 µg/mL.
